Reference: US9200017B2, “Multimodal imaging of fibrin” (The General Hospital Corporation, priority 2009, dated 2015)

Molecular target: T1, Thrombus (Rattus norvegicus, UniProt P02680+P06399+P14480)
T1 construct: thrombin cleaves fibrinopeptides on fibrinogen resulting in an end-to-end polymerization to give the polymer fibrin; A day old autologous blood clot was injected into the right internal carotid artery; from tissue; host or cells: autologous blood clot in the right internal carotid artery of Wistar rats
T1 sequence (P06399 37-550 isoform P06399-2 limits assumed): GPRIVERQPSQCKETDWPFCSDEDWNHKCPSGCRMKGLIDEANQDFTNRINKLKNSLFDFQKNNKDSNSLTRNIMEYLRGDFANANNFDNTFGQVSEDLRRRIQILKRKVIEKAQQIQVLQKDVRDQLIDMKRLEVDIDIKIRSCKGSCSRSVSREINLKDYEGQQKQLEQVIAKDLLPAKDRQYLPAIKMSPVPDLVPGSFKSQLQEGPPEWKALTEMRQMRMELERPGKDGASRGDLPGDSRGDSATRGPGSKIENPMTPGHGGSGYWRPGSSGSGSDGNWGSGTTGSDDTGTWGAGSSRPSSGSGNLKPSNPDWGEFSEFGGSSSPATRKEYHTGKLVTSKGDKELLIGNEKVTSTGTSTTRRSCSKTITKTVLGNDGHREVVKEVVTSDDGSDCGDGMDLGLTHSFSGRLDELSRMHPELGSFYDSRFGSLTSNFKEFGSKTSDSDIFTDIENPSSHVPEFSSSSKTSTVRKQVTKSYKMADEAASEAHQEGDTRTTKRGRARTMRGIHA
T1 sequence (P14480 33-479 limits assumed): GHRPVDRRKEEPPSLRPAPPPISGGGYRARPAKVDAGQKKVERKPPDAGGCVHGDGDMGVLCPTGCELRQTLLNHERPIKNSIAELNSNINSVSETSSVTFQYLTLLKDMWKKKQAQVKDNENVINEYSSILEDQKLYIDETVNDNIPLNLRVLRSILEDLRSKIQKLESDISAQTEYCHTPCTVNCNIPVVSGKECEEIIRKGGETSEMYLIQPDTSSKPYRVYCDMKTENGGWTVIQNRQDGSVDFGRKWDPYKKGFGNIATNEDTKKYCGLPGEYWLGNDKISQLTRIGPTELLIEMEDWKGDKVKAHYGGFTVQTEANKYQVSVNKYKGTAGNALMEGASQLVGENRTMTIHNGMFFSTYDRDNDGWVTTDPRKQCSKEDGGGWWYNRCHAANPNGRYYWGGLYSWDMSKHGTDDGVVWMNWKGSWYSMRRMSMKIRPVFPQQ
T1 sequence (P02680 26-437 isoform P02680-2 limits assumed): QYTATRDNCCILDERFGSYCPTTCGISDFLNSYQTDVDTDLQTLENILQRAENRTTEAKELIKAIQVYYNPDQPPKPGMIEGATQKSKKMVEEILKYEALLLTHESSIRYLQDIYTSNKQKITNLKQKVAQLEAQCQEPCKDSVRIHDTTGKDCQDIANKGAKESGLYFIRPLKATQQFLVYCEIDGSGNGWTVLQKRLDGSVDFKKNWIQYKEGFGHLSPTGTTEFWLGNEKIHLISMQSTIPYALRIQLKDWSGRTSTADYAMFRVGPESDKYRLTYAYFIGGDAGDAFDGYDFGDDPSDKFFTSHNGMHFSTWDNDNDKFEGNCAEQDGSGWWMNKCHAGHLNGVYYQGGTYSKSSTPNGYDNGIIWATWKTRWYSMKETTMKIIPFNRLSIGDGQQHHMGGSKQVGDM
Type: in vivo
Conditions: ex vivo, 2 h post-injection
Experimental: All animal studies were approved by the Subcommittee on Research Animal Care at Massachusetts General Hospital. The occlusive thrombus model was described previously (Zhang R L, Chopp M, Zhang Z G, Jiang Q, and Ewing J R., Brain Res. 1997 766(1-2):83-92). Briefly, male Wistar rats (350-400 g, n=8; Charles River Laboratories, Wilmington, Mass.) were anaesthetized with isoflurane (1-2% in 70% N2O and 30% O2) and body temperature was kept at 37.5° C. A day old autologous blood clot was injected into the right internal carotid artery (ICA) at the level of the middle cerebral artery (MCA). The femoral vein was cannulated for intravenous delivery of the contrast agent. […]
The ipsilateral (containing the thrombus) and contralateral ICA and MCA, cerebral hemispheres, blood, urine, intraabdominal organs, rectus femoris muscle and femur bone were collected from all the animals, weighed and radioactivity measured on a gamma counter. The percent of the injected dose per gram of tissue (% ID/g) was calculated by dividing the counts of ^64Cu/g of tissue by the total counts of the injected dose, based on an aliquot of the injected dose, with correction for radioactive decay. Tissues were later homogenized in nitric acid and analyzed for Gd concentration by inductively coupled plasma-mass spectrometry (ICP-MS).

Concentration of 64Cu in thrombus relative to contralateral vessel, blood plasma, brain, or muscle (p<0.005): at least 4 fold
Gd concentration in thrombus relative to contralateral vessel, blood plasma, brain, or muscle (ICP-MS, p<0.0001): over 6 fold
Substance: Gd3-EP-2104R-Cu [Compound 21]
